IC50 and Activity data for 16 compounds are collected here from ChEMBL document CHEMBL4765305, “Elephantopinolide A-P, germacrane-type sesquiterpene lactones from Elephantopus scaber induce apoptosis, autophagy and G2/M phase arrest in hepatocellular carcinoma cells” (Eur J Med Chem, 2020).

The subject of assay [1] is HepG2. Kind of assay: Anti-hepatoma activity against human HepG2 cells assessed as cell growth inhibition by MTT assay. It is filed as functional, cell-based. (In general: Tetrazolium dyes change colour on reduction, which living cells bring about.)
In assay [2] the test system is Hep 3B2. The assay is described as follows: Anti-hepatoma activity against human Hep3B cells assessed as cell growth inhibition by MTT assay. It is filed as functional, cell-based.
The test system of assay [3] is Hep 3B2. Kind of assay: Induction of autophagy in human Hep3B cells by MDC staining based flow cytometry analysis (Rvb =3.52%). In kind it is functional. On the technique in general: In flow cytometry, cells or beads pass a laser one at a time.
Assay [4] deals with HepG2. Kind of assay: Induction of autophagy in human HepG2 cells by MDC staining based flow cytometry analysis (Rvb =4.46%). In kind it is functional.

In general, IC50 refers to the concentration needed to halve the response being measured. For `C=C1C(=O)O[C@@H]2/C=C(\C)C[C@H]3C=C(C[C@H](OC(=O)C(C)C)[C@@H]12)C(=O)O3`, the IC50 in the assay on HepG2 [1] was determined as 10.6 µM; in the assay on Hep 3B2 [2] it was 8.63 µM.

With `C=C(C)C(=O)O[C@H]1CC2=C[C@H](C/C(C)=C/[C@H]3OC(=O)[C@@H](C)C13)OC2=O` (some centres undefined), the IC50 in the assay on HepG2 [1] and with Hep 3B2 [2] was over 20 µM in each case.

With `C/C=C(/C)C(=O)O[C@H]1CC2=C[C@@H](C/C(C)=C/[C@H]3OC(=O)C(CO)=C13)OC2=O`, the IC50 in the assay on HepG2 [1] and in the assay on Hep 3B2 [2] was over 20 µM each time.

Take `C=C1C(=O)O[C@H]2CC3=C[C@@H](C[C@@](C)(O)/C=C/[C@H]12)OC3=O`: the IC50 with HepG2 [1] and with Hep 3B2 [2] was over 20 µM in each case.

In the case of `CNC(=O)c1cc(Oc2ccc(NC(=O)Nc3ccc(Cl)c(C(F)(F)F)c3)cc2)ccn1` [SORAFENIB], the results for the half-inhibitory concentration (IC50) in the assay on HepG2 [1] and with Hep 3B2 [2] were 9.75 µM and 5.2 µM, respectively. Besides, the results for the Activity with Hep 3B2 [3] and with HepG2 [4] were 7.29% and 4.1%, respectively.

Take `C[C@@H]1C(=O)O[C@H]2CC3=C[C@@H](C[C@@](C)(O)/C=C/[C@@H]21)OC3=O`: the half-inhibitory concentration (IC50) in the assay on HepG2 [1] and with Hep 3B2 [2] was over 20 µM in each case.

In the case of `C=C(C)C(=O)O[C@H]1CC2=C[C@H](C[C@@]3(C)O[C@H]3[C@H]3OC(=O)C(=C)[C@@H]31)OC2=O`, the half-inhibitory concentration (IC50) in the assay on HepG2 [1] is 2.55 µM; in the assay on Hep 3B2 [2], 4.26 µM.

`C=C(C)C(=O)O[C@H]1CC2=C[C@@H](C[C@@](C)(O)/C=C/[C@@H]1C(=C)C(=O)OC)OC2=O`: the concentration for half-maximal inhibition (IC50) in the assay with HepG2 [1] and in the assay with Hep 3B2 [2] was over 20 µM each time.

`COC[C@@H]1C(=O)O[C@H]2[C@H]1[C@@H](O)CC1=C[C@H](C[C@@]3(C)O[C@@H]23)OC1=O`: the IC50 in the assay with HepG2 [1] and with Hep 3B2 [2] was over 20 µM in each case.

On to `C/C=C(\C)C(=O)O[C@H]1CC2=C[C@@H](C/C(C)=C/[C@H]3OC(=O)C(CO)=C13)OC2=O`, for which the concentration for half-maximal inhibition (IC50) with HepG2 [1] and with Hep 3B2 [2] was over 20 µM throughout.

Turning to `C=C1C(=O)O[C@H]2[C@H]1[C@@H](OC(=O)/C(C)=C\C)CC1=C[C@@H](C[C@@]3(C)O[C@@H]23)OC1=O`, the concentration for half-maximal inhibition (IC50) was determined as 5.99 µM with HepG2 [1] and 3.74 µM in the assay with Hep 3B2 [2].

`C=C1C(=O)O[C@H]2[C@H]1[C@@H](OC(=O)/C(C)=C\C)CC1=C[C@H](C[C@@]3(C)O[C@@H]23)OC1=O`: the values for the IC50 in the assay with HepG2 [1] and in the assay with Hep 3B2 [2] were 2.97 µM and 7.14 µM, respectively.

In the case of `C=C(C(=O)OC)[C@H]1/C=C/[C@](C)(O)C[C@@H]2C=C(C[C@@H]1OC(=O)/C(C)=C\C)C(=O)O2`, the IC50 in the assay on HepG2 [1] and in the assay on Hep 3B2 [2] was over 20 µM in each case.

Take `C=C(C)C(=O)O[C@H]1CC2=C[C@H](CC(=C)[C@@H](O)[C@H]3OC(=O)C(=C)[C@@H]31)OC2=O`: the values for the IC50 with HepG2 [1] and with Hep 3B2 [2] were 8.59 µM and 8.79 µM, respectively.

For `C=C(C)C(=O)OCC1=C2[C@@H](O)CC3=C[C@@H](C/C(C)=C/[C@H]2OC1=O)OC3=O`, the half-inhibitory concentration (IC50) with HepG2 [1] and in the assay on Hep 3B2 [2] was over 20 µM in each case.

Turning to `C=C1C(=O)O[C@H]2[C@H]1[C@@H](OC(=O)/C(C)=C\C)CC1=C[C@H](CC(=C)[C@H]2O)OC1=O`, the half-inhibitory concentration (IC50) in the assay with HepG2 [1] is 8.35 µM; in the assay with Hep 3B2 [2], 8.16 µM.
